Assay results from US20250351832A1, “PHYTOCHEMICALS AS BIOPESTICIDES AND BIOSTIMULANTS” (KAY BEE BIO ORGANICS PVT. LTD., priority 2024, published 2025).
Read-outs that look alike come from different tables or passages of the source.

Tests used:
Alternaria alternata [1] = test: In vitro poisoned food technique against fungus (Ex. 20); type: cell-based; conditions: poisoned food technique, PDA medium, dose 1 ml/gm/lit., after seven days
Alternaria alternata [2] = test: Alternaria leaf spot/blight on inoculated tomato plants (Ex. 28); type: in vivo; conditions: tomato plants, Alternaria alternata; after 7 days; dose 1 ml/gm/lit
tomato seedlings = test: Response of tomato plants, greenhouse growth (Ex. 30); type: in vivo; conditions: tomato seedlings, dose 1 ml/gm/lit; for Plant Height 5th Day / Stem Girth 5th Day / CCI 5th Day: 5th day after application; for Plant Height 10th Day / Stem Girth 10th Day / CCI 10th Day: 10th day after application; for Plant Height % Increase over pre on 10th Day / Stem Girth % Increase over pre on 10th Day / CCI % Increase over pre on 10th Day / Root Length (cm) 10th Day / Root Length % Increase over control: 10th day; for Root Length % Increase over control: vs water control
chili seedlings = test: Response of chili plants, greenhouse growth (Ex. 31); type: in vivo; conditions: chili seedlings, dose 1 ml/gm/lit; for CCI 5th Day / Plant Height (cm) 5th Day: 5th day after application; for CCI 10th Day / Plant Height (cm) 10th Day: 10th day after application; for CCI % Increase over pre on 10th Day / Plant Height % Increase over pre on 10th Day / Root Lenght (cm) 10th Day / Stem Girth % Increase over pre on 10th Day / Root Lenght % Increase over control: 10th day; for Root Lenght % Increase over control: vs water control
Aphid [3] = conditions: Dose 1 ml/gm/lit.; for Total No. of dead insect at 48 Hrs.: 10 insects/treatment, 4 replications, cotton leaves
Mite [4] = conditions: Dose 1 ml/gm/lit.; for Total No. of dead insect at 48 Hrs.: 10 insects/treatment, 4 replications, okra leaves
Mealy Bug [5] = conditions: Mealy Bug on cotton leaves, dose 1 ml/gm/lit., 48 Hrs.; for Total No. of dead insect at 48 Hrs.: 10 insects/treatment, 4 replications; for % Corrected Mortality at 48 Hrs.: corrected for water control
Helicoverpa armigera [6] = conditions: Helicoverpa armigera on okra fruits, dose 1 ml/gm/lit., 72 Hrs.; for Total No. of dead insect at 72 Hrs.: 10 insects/treatment, 4 replications; for % Corrected Mortality at 72 Hrs.: corrected for water control
Spodoptera litura [7] = conditions: Spodoptera litura on castor leaves, dose 1 ml/gm/lit.; for Total No. of dead insect at 72 Hrs.: 10 insects/treatment
Thrips [8] = conditions: Thrips on cotton leaves, dose 1 ml/gm/lit.; for Total No. of dead insect at 48 Hrs.: 10 insects/treatment
Aphid [9] = conditions: Aphids on cotton plants, green house, dose 1 ml/gm/lit.; for Total No. of dead insect at 48 Hrs.: 10 insects/plant, 10 plants/treatment
Mite [10] = conditions: mite on okra plants, green house, dose 1 ml/gm/lit. spray; for % Mortality at 48 Hrs. / Total No. of dead insect at 48 Hrs.: 48 hrs after application; for % Corrected Mortality at 48 Hrs.: corrected for water control
Mealy Bug [11] = conditions: mealy bug on cotton plants, green house, dose 1 ml/gm/lit. spray; for % Mortality at 48 Hrs. / Total No. of dead insect at 48 Hrs.: 48 hrs after application; for % Corrected Mortality at 48 Hrs.: corrected for water control
Helicoverpa armigera [12] = conditions: Helicoverpa armigera 3rd instar on chickpea plants, dose 1 ml/gm/lit. spray; for % Mortality at 72 Hrs.: 72 hrs after application; for % Corrected Mortality at 72 Hrs.: corrected for water control
Spodoptera litura [13] = conditions: Spodoptera litura 3rd instar on cabbage plants, dose 1 ml/gm/lit. spray; for % Mortality at 72 Hrs.: 72 hrs after application; for % Corrected Mortality at 72 Hrs.: corrected for water control
Thrips [14] = conditions: thrips on cotton plants, greenhouse, dose 1 ml/gm/lit. spray; for % Mortality at 48 Hrs. / Total No. of dead insect at 48 Hrs.: 48 hrs after application; for % Corrected Mortality at 48 Hrs.: corrected for water control
Spodoptera litura [15] = test: whole plant or invertebrate; conditions: 72 h
Thrips [16] = test: whole plant or invertebrate; conditions: in Gossypium hirsutum, 48 h
Aphid [17] = test: whole plant or invertebrate; conditions: 48 h
[18] = Table 13, descriptive; no test described; cited from earlier work
[19] = read-out: % Corrected Mortality at 48 Hrs.
[20] = read-out: % Mortality at 48 Hrs.
[21] = 48 hrs, corrected for water control

C=CCc1ccc(OC)cc1 [Methyl chavicol]
Mean colony Diameter (mm) (Alternaria alternata [1]): 54.00 mm | inhibition of growth at 1 mL or g/L (Alternaria alternata [1]; vs untreated control, read-out: % Inhibition of growth): 38.6% | % Disease reduction over Control (Alternaria alternata [2]): 48.76% | Plant Height 5th Day (tomato seedlings): 7.16 cm | Stem Girth 5th Day (tomato seedlings): 1.50 mm | Plant Height 10th Day (tomato seedlings): 7.86 cm | Stem Girth 10th Day (tomato seedlings): 2.10 mm | Plant Height % Increase over pre on 10th Day (tomato seedlings): 28.43% | Stem Girth % Increase over pre on 10th Day (tomato seedlings): 55.56% | CCI 5th Day (tomato seedlings): 14.23 | CCI % Increase over pre on 10th Day (tomato seedlings): 23.12% | Root Length (cm) 10th Day (tomato seedlings): 4.13 cm | CCI 10th Day (tomato seedlings): 15.23 | Root Length % Increase over control (tomato seedlings): 24.05% | CCI 5th Day (chili seedlings): 12.70 | Plant Height (cm) 5th Day (chili seedlings): 5.97 cm | CCI % Increase over pre on 10th Day (chili seedlings): 38.53% | Plant Height % Increase over pre on 10th Day (chili seedlings): 44.42% | Root Lenght (cm) 10th Day (chili seedlings): 3.11 cm | Stem Girth % Increase over pre on 10th Day (chili seedlings): 45.91% | CCI 10th Day (chili seedlings): 15.1 | Plant Height (cm) 10th Day (chili seedlings): 6.21 cm | Root Lenght % Increase over control (chili seedlings): 13.83% | Total No. of dead insect at 48 Hrs. (Aphid [3]): 6.50 | % Corrected Mortality at 48 Hrs. (Aphid [3]): 60.00% | % Mortality at 48 Hrs. (Aphid [3]): 65.00% | Total No. of dead insect at 48 Hrs. (Mite [4]): 4.50 | % Corrected Mortality at 48 Hrs. (Mite [4]): 40.54% | % Mortality at 48 Hrs. (Mite [4]): 45.00% | Total No. of dead insect at 48 Hrs. (Mealy Bug [5]): 6.25 | % Mortality at 48 Hrs. (Mealy Bug [5]): 62.50% | % Corrected Mortality at 48 Hrs. (Mealy Bug [5]): 60.53% | Total No. of dead insect at 72 Hrs. (Helicoverpa armigera [6]): 6.25 | % Mortality at 72 Hrs. (Helicoverpa armigera [6]): 62.50% | % Corrected Mortality at 72 Hrs. (Helicoverpa armigera [6]): 62.50% | Total No. of dead insect at 72 Hrs. (Spodoptera litura [7]; 72 hrs after application): 6.50 | Total No. of dead insect at 48 Hrs. (Thrips [8]; 48 hrs after application): 5.50 | Total No. of dead insect at 48 Hrs. (Aphid [9]; 48 hrs): 67.50 | % Mortality at 48 Hrs. (Mite [10]): 42.50% | Total No. of dead insect at 48 Hrs. (Mite [10]): 42.50 | % Corrected Mortality at 48 Hrs. (Mite [10]): 39.47% | % Mortality at 48 Hrs. (Mealy Bug [11]): 60.00% | Total No. of dead insect at 48 Hrs. (Mealy Bug [11]): 60.00 | % Corrected Mortality at 48 Hrs. (Mealy Bug [11]): 55.56% | % Mortality at 72 Hrs. (Helicoverpa armigera [12]): 67.50% | % Corrected Mortality at 72 Hrs. (Helicoverpa armigera [12]): 67.50% | % Mortality at 72 Hrs. (Spodoptera litura [13]): 62.50% | % Corrected Mortality at 72 Hrs. (Spodoptera litura [13]): 60.53% | % Mortality at 48 Hrs. (Thrips [14]): 57.50% | Total No. of dead insect at 48 Hrs. (Thrips [14]): 57.50 | % Corrected Mortality at 48 Hrs. (Thrips [14]): 52.78% | mortality at 1 mL or g/L (Spodoptera litura [15]; read-out: % Corrected Mortality at 72 Hrs.): 63.2% | mortality at 1 mL or g/L (Spodoptera litura [15]; read-out: % Mortality at 72 Hrs.): 65% | mortality at 1 mL or g/L (Thrips [16]; [19]): 48.6% | mortality at 1 mL or g/L (Thrips [16]; [20]): 55% | mortality at 1 mL or g/L (Aphid [17]; [19]): 61.8% | mortality at 1 mL or g/L (Aphid [17]; [20]): 67.5%

Parthenin
Mean colony Diameter (mm) (Alternaria alternata [1]): 78.00 mm | % Inhibition of growth (Alternaria alternata [1]; vs untreated control): 11.36% | % Disease reduction over Control (Alternaria alternata [2]): 43.80% | Plant Height 5th Day (tomato seedlings): 6.64 cm | Stem Girth 5th Day (tomato seedlings): 1.66 mm | Plant Height 10th Day (tomato seedlings): 7.29 cm | Stem Girth 10th Day (tomato seedlings): 2.22 mm | Plant Height % Increase over pre on 10th Day (tomato seedlings): 29.95% | Stem Girth % Increase over pre on 10th Day (tomato seedlings): 55.53% | Plant Height Pre (tomato seedlings; before application): 5.61 cm | Stem Girth Pre (tomato seedlings; before application): 1.43 mm | CCI 5th Day (tomato seedlings): 13.95 | CCI % Increase over pre on 10th Day (tomato seedlings): 20.70% | Root Length (cm) 10th Day (tomato seedlings): 4.05 cm | CCI 10th Day (tomato seedlings): 14.87 | Root Length % Increase over control (tomato seedlings): 21.63% | CCI Pre (tomato seedlings; pre-application baseline): 12.32 | CCI 5th Day (chili seedlings): 14.50 | Plant Height (cm) 5th Day (chili seedlings): 6.13 cm | CCI % Increase over pre on 10th Day (chili seedlings): 74.40% | Plant Height % Increase over pre on 10th Day (chili seedlings): 52.29% | Root Lenght (cm) 10th Day (chili seedlings): 3.12 cm | Stem Girth % Increase over pre on 10th Day (chili seedlings): 38.18% | CCI 10th Day (chili seedlings): 15.87 | Plant Height (cm) 10th Day (chili seedlings): 6.65 cm | Root Lenght % Increase over control (chili seedlings): 14.01% | CCI Pre (chili seedlings; pre-application baseline): 9.10 | Plant Height (cm) Pre (chili seedlings; pre-application baseline): 4.37 cm | Total No. of dead insect at 48 Hrs. (Aphid [3]): 6.00 | % Corrected Mortality at 48 Hrs. (Aphid [3]): 54.29% | % Mortality at 48 Hrs. (Aphid [3]): 60.00% | Total No. of dead insect at 48 Hrs. (Mite [4]): 3.25 | % Corrected Mortality at 48 Hrs. (Mite [4]): 27.03% | % Mortality at 48 Hrs. (Mite [4]): 32.50% | Total No. of dead insect at 48 Hrs. (Mealy Bug [5]): 4.75 | % Mortality at 48 Hrs. (Mealy Bug [5]): 47.50% | % Corrected Mortality at 48 Hrs. (Mealy Bug [5]): 44.74% | Total No. of dead insect at 72 Hrs. (Helicoverpa armigera [6]): 3.25 | % Mortality at 72 Hrs. (Helicoverpa armigera [6]): 32.50% | % Corrected Mortality at 72 Hrs. (Helicoverpa armigera [6]): 32.50% | Total No. of dead insect at 72 Hrs. (Spodoptera litura [7]; 72 hrs after application): 2.75 | % Mortality at 72 Hrs. (Spodoptera litura [7]; 72 hrs after application): 27.50% | % Corrected Mortality at 72 Hrs. (Spodoptera litura [7]; 72 hrs, corrected for water control): 23.68% | Total No. of dead insect at 48 Hrs. (Thrips [8]; 48 hrs after application): 4.75 | % Mortality at 48 Hrs. (Thrips [8]; 48 hrs after application): 47.50% | % Corrected Mortality at 48 Hrs. (Thrips [8]; [21]): 40.00% | Total No. of dead insect at 48 Hrs. (Aphid [9]; 48 hrs): 57.50 | % Mortality at 48 Hrs. (Aphid [9]; 48 hrs after application): 57.50% | % Corrected Mortality at 48 Hrs. (Aphid [9]; [21]): 50.00% | % Mortality at 48 Hrs. (Mite [10]): 22.50% | Total No. of dead insect at 48 Hrs. (Mite [10]): 22.50 | % Corrected Mortality at 48 Hrs. (Mite [10]): 18.42% | % Mortality at 48 Hrs. (Mealy Bug [11]): 50.00% | Total No. of dead insect at 48 Hrs. (Mealy Bug [11]): 50.00 | % Corrected Mortality at 48 Hrs. (Mealy Bug [11]): 44.44% | % Mortality at 72 Hrs. (Helicoverpa armigera [12]): 35.00% | % Corrected Mortality at 72 Hrs. (Helicoverpa armigera [12]): 35.00% | % Mortality at 72 Hrs. (Spodoptera litura [13]): 27.50% | % Corrected Mortality at 72 Hrs. (Spodoptera litura [13]): 23.68% | % Mortality at 48 Hrs. (Thrips [14]): 45.00% | Total No. of dead insect at 48 Hrs. (Thrips [14]): 45.00 | % Corrected Mortality at 48 Hrs. (Thrips [14]): 38.89% | Antioxidant Activity - Mode of action [18]: Possesses antioxidant | Insecticidal Activities - Mode of action [18]: Antifeedant activity against
